Measurements as given in patent US10751285B1, “Synthesis of C resorcinarene based novel amphiphilic supramolecular macrocycle as nano-scale drug loading system” (priority 2019, dated 2020).

Experiment: Critical micelle concentration (CMC) by UV-visible spectrophotometer
Type: physicochemical
Conditions: in methanol; absorbance at 283 nm; 0.001-0.09 mM range
Description: CMC of the synthesized resorcinarene based amphiphilic supramolecular macrocycle was investigated in methanol using UV-visible spectrophotometer. Amphiphile methanolic solutions in 0.001-0.09 mM range were read on UV-visible spectrophotometer, giving characteristic absorbance at 283 nm.

CCCCCCCCCCCCCCCCOc1ccc(C2c3cc(c(O)cc3O)C(c3ccc(OCCCCCCCCCCCCCCCC)cc3)c3cc(c(O)cc3O)C(c3ccc(OCCCCCCCCCCCCCCCC)cc3)c3cc(c(O)cc3O)C(c3ccc(OCCCCCCCCCCCCCCCC)cc3)c3cc2c(O)cc3O)cc1 (stereo not shown) [ASRM] gave a CMC of 0.04 mM.
